Results published in patent publication US20240308960A1 (Sumitomo Pharma Co., Ltd., priority 2021, published 2024).

Biological target: T1, Human orexin receptor type 2 (Homo sapiens, UniProt O43614)
T1 sequence (O43614 1-444): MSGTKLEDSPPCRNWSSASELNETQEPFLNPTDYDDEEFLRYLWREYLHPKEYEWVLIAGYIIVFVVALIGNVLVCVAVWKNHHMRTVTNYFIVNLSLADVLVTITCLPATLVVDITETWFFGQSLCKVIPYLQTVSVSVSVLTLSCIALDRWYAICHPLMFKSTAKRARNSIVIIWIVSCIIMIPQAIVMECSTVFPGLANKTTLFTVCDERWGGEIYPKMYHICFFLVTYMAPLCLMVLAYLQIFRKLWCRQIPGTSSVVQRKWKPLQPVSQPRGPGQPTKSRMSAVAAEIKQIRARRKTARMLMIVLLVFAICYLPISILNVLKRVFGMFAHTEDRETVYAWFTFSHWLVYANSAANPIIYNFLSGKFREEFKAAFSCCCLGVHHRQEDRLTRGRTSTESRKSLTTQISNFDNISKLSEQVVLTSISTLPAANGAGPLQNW
Test: Test Example 1: agonist activity for orexin receptor type 2 (aequorin luminescence, intracellular calcium mobilization)
Conditions: compound 10 μm; CHO cells transiently expressing human orexin receptor type 2 and apoaequorin; relative percentage of luminescence for the luminescence (100%) of Orexin A (100 μM)
Protocol: Human orexin receptor type 2 and apoaequorin were transiently expressed in CHO cells, and the agonist activity was evaluated based on intracellular calcium mobilization with ligand stimulation. The CHO cells transiently-expressed human orexin receptor type 2 and apoaequorin were seeded on a 384-well plate by 2,000 cells/well, and then incubated for 16-22 hours. After the plate was returned to room temperature, Coelenterazine hcp (final concentration: 1 μM) was added to the plate, and the plate was allowed to stand at room temperature for 2 hours. And then, Orexin A or each test compound was added to the plate, and the luminescence of the cells was measured with FDSS7000 (Hamamatsu Photonics K. K.), wherein Orexin A and each test compound were dissolved in DMSO (final concentration: 0.1%), and diluted with a buffer (Hanks, 20 mM HEPES, 0.1% BSA). The agonist activity of each test compound for orexin receptor type 2 was calculated as relative percentage of luminescence for the luminescence (100%) of Orexin A (100 μM).

SMILES	Agonist Activity (%)
Cc1ccc(C2CC3CCC(C2)N3C(=O)Nc2c(F)cccc2N2CCN(C(C)C)CC2)cc1 (centres unmarked) [Example 41, N-{2-fluoro-6-[4-(propan-2-yl)piperazin-1-yl]phenyl}-3-(4-methylphenyl)-8-azabicyclo[3.2.1]octane-8-carboxamide]	47%
CC1(c2noc(C3CC3)n2)CCN(C(=O)Nc2c(Cl)cccc2N2CCN(C(C)(C)C)CC2)CC1 [Example 100, N-[2-(4-tert-butylpiperazin-1-yl)-6-chlorophenyl]-4-(5-cyclopropyl-1,2,4-oxadiazol-3-yl)-4-methylpiperidine-1-carboxamide]	160%
CC(C)N1CCN(c2cccc(Cl)c2NC(=O)N2CCC(C)(c3noc(C4(F)CC4)n3)CC2)CC1 [Example 109, N-{2-chloro-6-[4-(propan-2-yl)piperazin-1-yl]phenyl}-4-[5-(1-fluorocyclopropyl)-1,2,4-oxadiazol-3-yl]-4-methylpiperidine-1-carboxamide]	161%
Cc1ccc(C2CCN(C(=O)Nc3c(F)cccc3N3CCN(C(C)C)CC3)CC2)nc1 [Example 46, N-{2-fluoro-6-[4-(propan-2-yl)piperazin-1-yl]phenyl}-4-(5-methylpyridin-2-yl)piperidine-1-carboxamide]	49%
COc1cccc(N2CCN(C(C)C)CC2)c1NC(=O)N1CCC(C)(c2noc(C(C)C)n2)CC1 [Example 21, N-{2-methoxy-6-[4-(propan-2-yl)piperazin-1-yl]phenyl}-4-methyl-4-[5-(propan-2-yl)-1,2,4-oxadiazol-3-yl]piperidine-1-carboxamide]	156%
CC(C)N1CCN(c2cccc(Br)c2NC(=O)N2CCC(C)(c3noc(C4CC4)n3)CC2)CC1 [Example 88, N-{2-bromo-6-[4-(propan-2-yl)piperazin-1-yl]phenyl}-4-(5-cyclopropyl-1,2,4-oxadiazol-3-yl)-4-methylpiperidine-1-carboxamide]	161%
Cc1ccc(C2CCN(C(=O)Nc3c(F)cccc3N3C[C@H]4C[C@@H]3CN4C(C)C)CC2)cc1 [Example 151, N-{2-fluoro-6-[(1R,4R)-5-(propan-2-yl)-2,5-diazabicyclo[2.2.1]heptan-2-yl]phenyl}-4-(4-methylphenyl)piperidine-1-carboxamide]	97%
Cc1ccc(C2CCN(C(=O)Nc3c(F)cccc3C3=CCN(C)C3)CC2)cc1 [Example 140, N-[2-fluoro-6-(1-methyl-2,5-dihydro-1H-pyrrol-3-yl)phenyl]-4-(4-methylphenyl)piperidine-1-carboxamide]	75%
CC(C)c1ccc(-c2cccc(Cl)c2NC(=O)N2CCC(C)(c3cc(C4CC4)on3)CC2)cn1 [Example 69, N-{2-chloro-6-[6-(propan-2-yl)pyridin-3-yl]phenyl}-4-(5-cyclopropyl-1,2-oxazol-3-yl)-4-methylpiperidine-1-carboxamide]	129%
COC1(c2nc(C3(C)CCN(C(=O)Nc4c(Cl)cccc4N4CCN(C(C)C)CC4)CC3)no2)CC1 [Example 108, N-{2-chloro-6-[4-(propan-2-yl)piperazin-1-yl]phenyl}-4-[5-(1-methoxycyclopropyl)-1,2,4-oxadiazol-3-yl]-4-methylpiperidine-1-carboxamide]	157%
Cc1ccc(C2CCN(C(=O)Nc3c(F)cccc3C3=CCN(C(C)C(F)F)CC3)CC2)cc1 (centres unmarked) [Example 135, N-{2-[1-(1,1-difluoropropan-2-yl)-1,2,3,6-tetrahydropyridin-4-yl]-6-fluorophenyl}-4-(4-methylphenyl)piperidine-1-carboxamide]	103%
CC(CF)N1CC=C(c2cccc(Cl)c2NC(=O)N2CCC(C)(c3cc(C4CC4)on3)CC2)CC1 (centres unmarked) [Example 141, N-{2-chloro-6-[1-(1-fluoropropan-2-yl)-1,2,3,6-tetrahydropyridin-4-yl]phenyl}-4-(5-cyclopropyl-1,2-oxazol-3-yl)-4-methylpiperidine-1-carboxamide]	121%
CC(C)N1CCN(c2cccc(Cl)c2NC(=O)N2CCC(C)(c3noc(C4CCC4)n3)CC2)CC1 [Example 78, N-{2-chloro-6-[4-(propan-2-yl)piperazin-1-yl]phenyl}-4-(5-cyclobutyl-1,2,4-oxadiazol-3-yl)-4-methylpiperidine-1-carboxamide]	170%
CC(C)N1CC=C(c2cccc(F)c2NC(=O)N2CCC(C)(c3nc4ccccc4o3)CC2)CC1 [Example 50, 4-(1,3-benzoxazol-2-yl)-N-{2-fluoro-6-[1-(propan-2-yl)-1,2,3,6-tetrahydropyridin-4-yl]phenyl}-4-methylpiperidine-1-carboxamide]	187%
Cc1ccc(C2CCN(C(=O)Nc3c(Cl)cccc3C3CCN(C(C)C)CC3)CC2)cc1 [Example 133, N-{2-chloro-6-[1-(propan-2-yl)piperidin-4-yl]phenyl}-4-(4-methylphenyl)piperidine-1-carboxamide]	156%
CC(C)N1CCC(c2cccc(F)c2NC(=O)N2CCC(C)(c3nc4ccccc4o3)CC2)CC1 [Example 49, 4-(1,3-benzoxazol-2-yl)-N-{2-fluoro-6-[1-(propan-2-yl)piperidin-4-yl]phenyl}-4-methylpiperidine-1-carboxamide]	196%
COc1cccc(N2CCN(C(C)C)CC2)c1NC(=O)N1CCC(C)(c2noc(C)n2)CC1 [Example 23, N-{2-methoxy-6-[4-(propan-2-yl)piperazin-1-yl]phenyl}-4-methyl-4-(5-methyl-1,2,4-oxadiazol-3-yl)piperidine-1-carboxamide]	92%
CC(C)N1CCN(c2cccc(Cl)c2NC(=O)N2CCC(C)(c3noc(C4CC4(C)C)n3)CC2)CC1 (centres unmarked) [Example 106, N-{2-chloro-6-[4-(propan-2-yl)piperazin-1-yl]phenyl}-4-[5-(2,2-dimethylcyclopropyl)-1,2,4-oxadiazol-3-yl]-4-methylpiperidine-1-carboxamide]	185%
CC(C)N1CCN(c2cccc(Cl)c2NC(=O)N2CCC(C)(c3noc(C4CC(F)(F)C4)n3)CC2)CC1 [Example 76, N-{2-chloro-6-[4-(propan-2-yl)piperazin-1-yl]phenyl}-4-[5-(3,3-difluorocyclobutyl)-1,2,4-oxadiazol-3-yl]-4-methylpiperidine-1-carboxamide]	148%
CC(C)c1nc(C2(C)CCN(C(=O)Nc3ccccc3N3CCN(C(C)C)CC3)CC2)no1 [Example 19, 4-methyl-4-[5-(propan-2-yl)-1,2,4-oxadiazol-3-yl]-N-{2-[4-(propan-2-yl)piperazin-1-yl]phenyl}piperidine-1-carboxamide]	133%
COCCN1CCN(c2ccccc2NC(=O)N2CCC(c3ccc(C)cc3)CC2)CC1 [Example 125, N-{2-[4-(2-methoxyethyl)piperazin-1-yl]phenyl}-4-(4-methylphenyl)piperidine-1-carboxamide]	141%
Cc1ccc(C23CCN(C(=O)Nc4ccccc4N4CCN(C(C)C)CC4)CC2C3)cc1 (centres unmarked) [Example 14, 6-(4-methylphenyl)-N-{2-[4-(propan-2-yl)piperazin-1-yl]phenyl}-3-azabicyclo[4.1.0]heptane-3-carboxamide]	126%
Cc1ccc(C2CCN(C(=O)Nc3c(F)cccc3N3C4CCC3CN(C(C)C)C4)CC2)cc1 [Example 161, N-{2-Fluoro-6-[3-(propan-2-yl)-3,8-diazabicyclo[3.2.1]octan-8-yl]phenyl}-4-(4-methylphenyl)piperidine-1-carboxamide]	90%
Cc1ccc(C2CCN(C(=O)Nc3c(F)cccc3C3CCN(C(C)C(F)F)CC3)CC2)cc1 (centres unmarked) [Example 138, N-{2-[1-(1,1-difluoropropan-2-yl)piperidin-4-yl]-6-fluorophenyl}-4-(4-methylphenyl)piperidine-1-carboxamide]	44%
CC(C)N1CCC(c2cccc(F)c2NC(=O)N2CCC(C)(c3noc(C4CC4)n3)CC2)CC1 [Example 43, 4-(5-cyclopropyl-1,2,4-oxadiazol-3-yl)-N-{2-fluoro-6-[1-(propan-2-yl)piperidin-4-yl]phenyl}-4-methylpiperidine-1-carboxamide]	135%
CC(C)N1CCN(c2cccc(F)c2NC(=O)N2CCC(c3ccccn3)CC2)CC1 [Example 36, N-{2-fluoro-6-[4-(propan-2-yl)piperazin-1-yl]phenyl}-4-(pyridin-2-yl)piperidine-1-carboxamide]	123%
COc1cccc(CN2CCN(C(C)C)CC2)c1NC(=O)N1CCC(c2ccc(C)cc2)CC1 [Example 63, N-(2-methoxy-6-{[4-(propan-2-yl)piperazin-1-yl]methyl}phenyl)-4-(4-methylphenyl)piperidine-1-carboxamide]	26%
CC(C)N1CCN(c2cccc(F)c2NC(=O)N2CCC(C)(c3noc(C(F)(F)F)n3)CC2)CC1 [Example 24, N-{2-fluoro-6-[4-(propan-2-yl)piperazin-1-yl]phenyl}-4-methyl-4-[5-(trifluoromethyl)-1,2,4-oxadiazol-3-yl]piperidine-1-carboxamide]	127%
Cc1ccc(C2CCN(C(=O)Nc3c(F)cccc3C3=CCN(C(C)C)CC3)CC2)cc1 [Example 42, N-{2-fluoro-6-[1-(propan-2-yl)-1,2,3,6-tetrahydropyridin-4-yl]phenyl}-4-(4-methylphenyl)piperidine-1-carboxamide]	128%
